Some test systems named below: HCC-2998 colon; HT29 colon; MDA-MB-231 breast; MDA-MB-435; MOLT-4 leukemia; NCI/ADR-RES ovarian; SF-268 CNS; SF-539 CNS; SK-MEL-5 melanoma; SW-620 colon.
Common to all, as to assay: inhibition of tumour cell growth, NCI panel, 48 h

Several values for one entry are separate records, joined by “and”; a condition that tells them apart may be missing. Identical values can stand only once.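 Dose response: 5 concentrations. Exposure: 48 h. Format: 96-well plates. Endpoint: linear interpolation; highest concentration if not reached. Abbreviation: GI50, concentration required for 50% inhibition of growth. TGI marks complete inhibition of growth.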

Turning to `Cc1ccc(F)c(NC(=O)Nc2ccc(-c3cccc4[nH]nc(N)c34)cc2)c1`, the GI50 was 2.52 µM and 2.79 µM in the experiment on HCC-2998 colon; 2460 nM and 2860 nM in the experiment on HT29 colon; 4.31 µM and 3.39 µM in the experiment with MDA-MB-231 breast; 2680 nM and 2880 nM with MDA-MB-435; 3.13 µM and 3.08 µM in the experiment on MOLT-4 leukemia; 3.4 µM and 3.81 µM with NCI/ADR-RES ovarian. Moreover, the GI50 with SF-268 CNS was 2.92 µM and 3.25 µM; in the experiment on SF-539 CNS it was 1610 nM and 1520 nM; in the experiment on SK-MEL-5 melanoma, 2.88 µM; in the experiment with SW-620 colon it was 2400 nM and 2580 nM. Further, the TGI in the experiment with HCC-2998 colon was 6.67 µM and 7.81 µM; in the experiment with HT29 colon it was 6.93 µM and > 10 µM; in the experiment on MDA-MB-231 breast it was 16.4 µM and > 10 µM; with MDA-MB-435, 11 µM and > 10 µM; in the experiment with MOLT-4 leukemia, over 42.9 µM; in the experiment on NCI/ADR-RES ovarian it was 18.6 µM and > 10 µM. Further, the TGI with SF-268 CNS was 11.2 µM and > 10 µM; in the experiment on SF-539 CNS, 6.67 µM and > 10 µM; in the experiment on SK-MEL-5 melanoma it was 8.56 µM; in the experiment on SW-620 colon, 6.73 µM and 9.58 µM.
Consider `O=C(O)CCCCn1ccc(=O)[nH]c1=O`, for which the TGI with HCC-2998 colon, in the experiment on HT29 colon, in the experiment on MDA-MB-231 breast, with MDA-MB-435, with MOLT-4 leukemia and with NCI/ADR-RES ovarian was over 100 µM throughout. Besides, the TGI in the experiment on SF-268 CNS, with SF-539 CNS, with SK-MEL-5 melanoma and in the experiment on SW-620 colon was over 100 µM throughout.
As for `CC(c1cc(Cl)ccc1O)c1cc(Cl)ccc1O`, the GI50 with HCC-2998 colon is 3.84 µM; with HT29 colon, 2740 nM; with MDA-MB-231 breast, 3.88 µM; in the experiment with MDA-MB-435, 2320 nM; in the experiment on MOLT-4 leukemia, 3.3 µM; in the experiment with NCI/ADR-RES ovarian it was 3.15 µM. Besides, the GI50 in the experiment on SF-268 CNS is 4.33 µM; in the experiment on SF-539 CNS, 3520 nM; in the experiment with SK-MEL-5 melanoma, 3.41 µM; with SW-620 colon it was 3700 nM. For the same compound, the TGI with HCC-2998 colon was 12.8 µM; in the experiment with HT29 colon, 9.13 µM; with MDA-MB-231 breast, 16.2 µM; in the experiment on MDA-MB-435, 7.25 µM; in the experiment on MOLT-4 leukemia, 10.3 µM; with NCI/ADR-RES ovarian, 9.16 µM. The TGI came out at 16.9 µM in the experiment with SF-268 CNS, 12.9 µM in the experiment on SF-539 CNS, 10 µM with SK-MEL-5 melanoma and 13.3 µM with SW-620 colon.
For `O=C([O][Hg][c]1ccccc1)c1ccccc1`, the GI50 in the experiment with HCC-2998 colon was 2 µM; in the experiment with HT29 colon, 2940 nM; with MDA-MB-231 breast, 1.86 µM; in the experiment on MDA-MB-435, 1550 nM; with MOLT-4 leukemia it was 1.38 µM; with NCI/ADR-RES ovarian it was 3.32 µM. Further, the GI50 in the experiment with SF-268 CNS is 1.89 µM; in the experiment on SF-539 CNS it was 1580 nM; in the experiment on SK-MEL-5 melanoma, 1.53 µM; in the experiment on SW-620 colon, 943 nM. The TGI in the experiment on HCC-2998 colon was 3.82 µM; in the experiment with HT29 colon, 9.82 µM; in the experiment with MDA-MB-231 breast, 4.62 µM; in the experiment on MDA-MB-435, 3.1 µM; in the experiment on MOLT-4 leukemia it was 5.7 µM; with NCI/ADR-RES ovarian it was over 27.4 µM. In addition, the TGI in the experiment on SF-268 CNS stood at 4.78 µM; in the experiment on SF-539 CNS, 3.26 µM; with SK-MEL-5 melanoma, 3.06 µM; in the experiment on SW-620 colon, 2.63 µM.
In the case of `CCn1c(-c2nonc2N)nc2c(C#CC(C)(C)O)ncc(OC3CCNCC3)c21`, the GI50 in the experiment on HCC-2998 colon is 7.08 µM; with HT29 colon, 8930 nM; in the experiment with MDA-MB-231 breast it was 20 µM; with MDA-MB-435, 13600 nM; with MOLT-4 leukemia, 6.32 µM; with NCI/ADR-RES ovarian it was over 25 µM. Also, the GI50 in the experiment with SF-268 CNS is 16.6 µM; with SF-539 CNS, 2950 nM; in the experiment with SK-MEL-5 melanoma, over 20.1 µM; in the experiment on SW-620 colon, 10300 nM. Besides, the TGI with HCC-2998 colon, with HT29 colon, in the experiment with MDA-MB-231 breast, in the experiment on MDA-MB-435, in the experiment on MOLT-4 leukemia and in the experiment with NCI/ADR-RES ovarian was over 25 µM each time. The TGI with SF-268 CNS, in the experiment with SF-539 CNS, with SK-MEL-5 melanoma and with SW-620 colon was over 25 µM each time.
Turning to `Cc1ccc(-c2nc3nc(-c4ccc(F)cc4)nc(N4CCNCC4)c3o2)cc1`, the GI50 in the experiment on HCC-2998 colon is 4.11 µM; in the experiment on HT29 colon, 1860 nM; in the experiment with MDA-MB-231 breast, 1.86 µM; in the experiment with MDA-MB-435, 1780 nM; in the experiment with MOLT-4 leukemia it was 2.1 µM; in the experiment with NCI/ADR-RES ovarian, 2.11 µM. Also, the GI50 in the experiment with SF-268 CNS is 1.93 µM; in the experiment with SF-539 CNS, 1670 nM; with SK-MEL-5 melanoma, 15.4 µM; in the experiment on SW-620 colon, 1760 nM. Also, the TGI came to 15.8 µM in the experiment with HCC-2998 colon; 3.93 µM with HT29 colon; 3.63 µM with MDA-MB-231 breast; 3.24 µM in the experiment on MDA-MB-435; 4.42 µM in the experiment on MOLT-4 leukemia; 4.47 µM in the experiment with NCI/ADR-RES ovarian. For the same compound, the TGI was found to be 4.35 µM with SF-268 CNS, 3.12 µM in the experiment on SF-539 CNS, 29 µM in the experiment with SK-MEL-5 melanoma and 3.61 µM with SW-620 colon.
`N#CC1C[C@@H]2CC3(CCC2CN1C(=O)c1ccccc1)OCCO3` (stereo partly drawn): the TGI with HCC-2998 colon, in the experiment with HT29 colon, in the experiment on MDA-MB-231 breast, with MDA-MB-435, in the experiment with MOLT-4 leukemia and with NCI/ADR-RES ovarian was over 100 µM each time. Moreover, the TGI with SF-268 CNS, in the experiment with SF-539 CNS, in the experiment on SK-MEL-5 melanoma and with SW-620 colon was over 100 µM throughout. Moreover, the GI50 with MDA-MB-231 breast was over 100 µM; in the experiment on MDA-MB-435, over 100000 nM; in the experiment with NCI/ADR-RES ovarian, over 100 µM.

For the origin of these results see PubChem BioAssay (NCI).
